Experimental findings from patent publication US12286437B2, “Cardiac sarcomere inhibitors” (Cytokinetics, Inc., priority 2021, dated 2025) are described below.

Data set [1] has as its system bovine cardiac myofibrils. Briefly: Myofibril assay (ATPase activity of skinned bovine cardiac myofibrils, PK/LDH-coupled). The data set is classed as biochemical. Particulars: inhibition of steady-state ATPase of bovine cardiac myofibrils; CaCl2 for 50% or 75% activation. As to the method:
To evaluate the effect of compounds on the ATPase activity of full-length cardiac myosin in the context of the native sarcomere, skinned myofibril assays were performed. Bovine cardiac myofibrils were obtained by homogenizing bovine cardiac left ventricular tissue in the presence of a detergent such as triton X-100. Such treatment removes membranes and a majority of the soluble cytoplasmic proteins but leaves intact the cardiac sarcomeric acto-myosin apparatus. Myofibril preparations retain the ability to hydrolyze ATP in a Ca^2+ regulated manner. ATPase activities of such myofibril preparations in the presence and absence of compounds were assayed at Ca^2+ concentrations activating to a defined fraction of the maximal rate (i.e., […], 75%). Small molecule agents were assessed for their ability to inhibit the steady-state ATPase activity of bovine cardiac myofibrils using pyruvate kinase and lactate dehydrogenase (PK/LDH)-coupled enzyme system. This assay regenerates myosin-produced ADP into ATP by oxidizing NADH, producing an absorbance change at 340 nm. Prior to testing small molecule agents, the bovine cardiac myofibrils were assessed for their calcium responsiveness and the calcium concentration that achieves either a 50% (pCa50) or 75% (pCa75) activation of the myofibril system was chosen as the final condition for assessing the inhibitory activity of the small molecule agents. All enzymatic activity was measured in a buffered solution containing 12 mM PIPES (piperazine-N,N′-bis(2-ethanesulfonic acid), 2 mM magnesium chloride at pH 6.8 (PM 12 buffer). Final assay conditions were 1 mg/mL of bovine cardiac myofibrils, 4 U/mL pyruvate kinase, 6 U/mL lactate dehydrogenase, 50 μM ATP, 0.1 mg/mL BSA (bovine serum albumin), 10 ppm antifoam, 1 mM DTT, 0.5 mM NADH, 1.5 mM PEP, 0.6 mM EGTA, and an amount of CaCl2 sufficient to achieve either 50% or 75% activation of the myofibril ATPase activity. Results for compounds tested are provided in Table A. Compounds tested were prepared in accordance with the synthetic procedures described herein.

Data set [2] in a line: Dog single dose pharmacokinetics. In kind it is in vivo, beagle dogs. The following applies: male, beagle, plasma, IV, read-out: t½ (converted). As to the method: Non-naïve male beagle dogs (8 months-3 years of age, body weight 8-13 kg) were used in this study. All animals for IV administration had free access to food and water; all animals for PO were fasted overnight prior to dosing and were fed approximately 6 hours after dosing. For the animals in PO group, pentagastrin (6.0 μg/kg, i.m.) was administrated 20 minutes before dosing PO formulation and 1.5 hours after the first pentagastrin dosing. The dosing volume was 0.024 mL/kg, the concentration was 250 μg/mL in DMSO/1 N NaOH/PBS. 10 mL of 0.001 N HCl was used to wash the gavage catheter for each animal. The IV dose solution was prepared in 10% DMA/50% PG/40% HPβCD solution (40% w/v aqueous HPβCD) at a concentration of 1.0 mg/mL. The oral dose suspension was prepared by suspending the compound in 0.5% HPMC/0.1% Tween 80 in distilled water at a concentration of 0.2 mg/mL. Concentrations of IV and PO doses were measured at the end of the study. PK parameters were calculated using the nominal dose values if the measured values were within 20% of the nominal values. Blood samples were collected by venipuncture of peripheral veins except the dosing vein at pre-dose, 5 15, 30 min, 1, 2, 4, 6, 8, 24 and 48 h post-dose. Blood samples were centrifuged and resultant plasma was frozen for bioanalysis. Plasma samples were stored at −80° C. before analysis. Plasma samples were analyzed for compound concentrations using the LC/MS/MS method. Briefly, a 50 μL aliquot of each plasma sample was mixed with 100 μL of acetonitrile that contained an internal standard. The mixture was vortexed and centrifuged. Ten (10) μL of the resulting solution was injected onto a reverse-phase C18 column and the resultant peaks detected on a LC/MS/MS equipped with a turbo ionspray ionization source. Sample concentrations below the limit of quantification (BLQ) were treated as zero for PK calculations. PK parameters were estimated from individual animals using noncompartmental analysis of the concentration-time data (Phoenix WinNonLin software, version 64; Pharsight, Mountain View, CA). The elimination rate constant (k) was calculated as the absolute value of the slope of the linear regression of logarithm (log) of the concentration versus time for the last three data points of the concentration-time profiles. Apparent elimination half-life (t1/2) values were calculated as ln(2)/k. Area under the concentration-time curve (AUC) values were estimated using linear trapezoidal method. AUCt values were calculated from the dosing time to the last measurable concentration. AUC∞ values were calculated as the sum of the corresponding AUCt and the ratio of the last detectable concentration divided by k. Plasma clearance (CL) was calculated from Dose/AUC∞. Mean resident time extrapolated to infinity (MRT∞) was estimated by moment analysis. Vss was calculated from MRT∞×CL. Maximum concentration (Cmax) and time to reach Cmax (tmax) were recorded as observed. As this was a cross-over study, bioavailability was calculated dAUC∞,po/dAUC∞,iv×100% where dAUC was the dose normalized AUC value from the same animal given IV and PO dose. Data for compounds tested are provided in Table D. Compounds tested were prepared in accordance with the synthetic procedures described herein.

A short description of data set [3]: Projected single-dose CL and Vss values in humans (allometric scaling of mouse, rat, dog, monkey IV PK). The following applies: human, projected by allometric scaling from single-dose IV PK. As to the method: Allometric scaling for the prediction of human Clearance and Volume of Distribution was based on interspecies simple allometric scaling of mouse, rat, dog, and cynomolgus monkey intravenous pharmacokinetic parameters (Boxenbaum, J Pharmacokinet Biopharm 10:201-27, 1982). Prediction of human CL was performed by extrapolating pre-clinical species' plasma intravenous clearance. The ‘rule of exponents’ (Mahmood & Balian, Life Sci 59:579-85, 1996) was examined in this prediction, where it has been proposed that, when the exponent of simple allometry lies between […] and 0.99, a correction factor based on Maximum Life Span (MLP) of this species can be applied and, when the exponent of simple allometry is greater than 1.0, a correction factor based on Brain Weight (BrW) can be applied, or a protein binding correction can be applied when available. In a similar manner, simple allometric scaling was employed to predict human Volume of Distribution. This method has been used successfully for varied drugs (Ward & Smith, Drug Metab Dispos 32:612-19, 2004; McGinnity et al., Curr Drug Metab 8:463-79, 2007).

A short description of data set [4]: Rat single dose pharmacokinetics. The data set is classed as in vivo, Sprague Dawley rats. Particulars: male, Sprague Dawley, plasma, IV. As to the method:
Male Sprague Dawley rats were obtained from Zhejiang Vital River Laboratory Animal Technology Co., Ltd. The animals in IV group had free access to water and food. The animals in PO group were fasted overnight before dosing and provided with food 2 hours post dosing. The IV dose solution was prepared in 10% DMA/50% PG/40% HPβCD solution (40% w/v aqueous HPβCD) at a concentration of 1 mg/mL. The oral dosing suspension was prepared by suspending Test Article in 0.5% HPMC/0.1% Tween 80 in water at a concentration 0.2 mg/mL. Concentrations of IV and PO doses were measured at the end of the study. Pharmacokinetic parameters were calculated using the nominal dose values if the measured values were within 20% of the nominal values. Three rats were dosed IV via a bolus injection via caudal vein. Three rats per dose group were dosed by oral gavage. Blood samples were collected from the jugular vein cannula at predose, 5 (IV only), 15, 30 minutes, and 1, 2, 4, 6, and 24 hours post-dose. Blood volumes were replaced with an equal amount of sterile 0.9% saline. Blood samples were centrifuged and the collected plasma was stored at −80° C. for subsequent analysis. Plasma samples were analyzed for Test Article concentrations using a LC/MS/MS method. Briefly, a 50 μL aliquot of each plasma sample was mixed with 100 μL of acetonitrile that contained an internal standard. The mixture was vortexed and centrifuged. Ten (10) […] of the resulting solution was injected onto a reverse-phase C18 column and the resultant peaks detected on a LC/MS/MS equipped with a turbo ionspray ionization source. Sample concentrations below the limit of quantification (BLQ) were treated as zero for pharmacokinetic calculations. Pharmacokinetic parameters were estimated from individual animals using noncompartmental analysis of the concentration-time data (Phoenix WinNonLin software, version 64; Pharsight, Mountain View, CA). The elimination rate constant (k) was calculated as the absolute value of the slope of the linear regression of logarithm (log) of the concentration versus time for the last three data points of the concentration-time profiles. Apparent elimination half-life (t1/2) values were calculated as ln(2)/k. Area under the concentration-time curve (AUC) values were estimated using linear trapezoidal method. AUCt values were calculated from the dosing time to the last measurable concentration. AUC∞ values were calculated as the sum of the corresponding AUCt and the ratio of the last detectable concentration divided by k (AUCt-∞). Plasma clearance (CL) was calculated from Dose/AUC∞. Mean resident time (MRT) was estimated by moment analysis. Volume of distribution at steady state (Vss) was calculated from MRT∞×CL. Maximum concentration (Cmax) and time to reach Cmax (tmax) were recorded as observed. Bioavailability was calculated from the ratio of dose normalized AUC∞,po of individual rats/mean dAUC∞,iv×100% where dAUC was the dose normalized AUC value. Compounds tested were prepared in accordance with the synthetic procedures described herein.

Data set [5] in a line: Dog cassette dosing pharmacokinetics. The data set is classed as in vivo, beagle dogs. The following applies: male, beagle, plasma, IV. As to the method:
Non-naïve male beagle dogs (8 months to 3 years of age, body weight 8-14 kg) sourced from Jiangsu Johnsen Bioresource CO. and/or Beijing Rixinkeji CO., LTD and/or Beijing Marshall Biotechnology CO., LTD were used in this study. All animals for IV administration had free access to food and water. The IV dose solution was prepared in 10% DMA/50% PG/40% HPβCD solution (40% w/v aqueous HPβCD) at a concentration of 0.2 mg/mL. Concentrations of IV dose was measured at the end of the study. PK parameters were calculated using the nominal dose values if the measured values were within 20% of the nominal values. Blood samples were collected by venipuncture of peripheral veins except the dosing vein at pre-dose, 5 15, 30 min, 1, 2, 4, 6, 8 and 24 h post-dose. Blood samples were centrifuged and resultant plasma was frozen for bioanalysis. Plasma samples were stored at −80° C. before analysis. Plasma samples were analyzed for compound concentrations using the LC/MS/MS method. Briefly, a 50 μL aliquot of each plasma sample was mixed with 100 μL of acetonitrile that contained an internal standard. The mixture was vortexed and centrifuged. Ten (10) μL of the resulting solution was injected onto a reverse-phase C18 column and the resultant peaks detected on a LC/MS/MS equipped with a turbo ionspray ionization source. Sample concentrations below the limit of quantification (BLQ) were treated as zero for PK calculations. PK parameters were estimated from individual animals using noncompartmental analysis of the concentration-time data (Phoenix WinNonLin software, version 64; Pharsight, Mountain View, CA). The elimination rate constant (k) was calculated as the absolute value of the slope of the linear regression of logarithm (log) of the concentration versus time for the last three data points of the concentration-time profiles. Apparent elimination half-life (t1/2) values were calculated as ln(2)/k. Area under the concentration-time curve (AUC) values were estimated using linear trapezoidal method. AUCt values were calculated from the dosing time to the last measurable concentration. AUC∞ values were calculated as the sum of the corresponding AUCt and the ratio of the last detectable concentration divided by k. Plasma clearance (CL) was calculated from Dose/AUC∞. Mean resident time extrapolated to infinity (MRT∞) was estimated by moment analysis. Vss was calculated from MRT∞×CL. Maximum concentration (Cmax) and time to reach Cmax (tmax) were recorded as observed. As this was a cross-over study, bioavailability was calculated dAUC∞,po/dAUC∞,iv×100% where dAUC was the dose normalized AUC value from the same animal given IV and PO dose. Data for compounds tested are provided in Table G. Compounds tested were prepared in accordance with the synthetic procedures described herein.

Data set [6] can be described thus: Monkey cassette dosing pharmacokinetics. The data set is classed as in vivo. Particulars: IV.

Regarding `O=CN1CC2(C1)C(=O)N(c1ccc(F)cc1F)CC(=O)N2Cc1ccc(Cl)cc1` [Comparator A, 5-(4-chlorobenzyl)-8-(2,4-difluorophenyl)-6,9-dioxo-2,5,8-triazaspiro[3.5]nonane-2-carbaldehyde, reference compound], in data set [1], the “CDMF IC15” value came to 1.8 µM. The half-life in data set [2] was 39.2 h. Further, in data set [3], the “Projected CL” value worked out at 0.0864 L/h/kg and the “Projected t½” value came to 38.7 h.

Consider `CC(=O)N1CC2(C1)C(=O)N(c1ccc(C#N)cc1F)CC(=O)N2Cc1ccc(C(F)(F)F)cc1` [Comparator D, 4-(2-acetyl-6,9-dioxo-5-(4-(trifluoromethyl)benzyl)-2,5,8-triazaspiro[3.5]nonan-8-yl)-3-fluorobenzonitrile], for which the “CDMF IC15” value in data set [1] was found to be 1.1 µM. In addition, in data set [2], the half-life is 23.7 h. Further, in data set [3], the “Projected CL” value amounted to 0.0576 L/h/kg, the “Projected Vss” value came to 5.16 L/kg and the “Projected t½” value is reported as 62 h.

Regarding `O=CN1CC2(C1)C(=O)N([C@H]1CC[C@H](C(F)F)CC1)CC(=O)N2Cc1ccc(C(F)(F)F)cc1` [Comparator E, 8-((1r,4r)-4-(difluoromethyl)cyclohexyl)-6,9-dioxo-5-(4-(trifluoromethyl)benzyl)-2,5,8-triazaspiro[3.5]nonane-2-carbaldehyde], in data set [1], the “CDMF IC15” value stood at 1.3 µM. In data set [2], the half-life was 33.1 h. In data set [3], the “Projected CL” value was 0.072 L/h/kg, the “Projected Vss” value is reported as 5.5 L/kg and the “Projected t½” value is reported as 51.7 h.

With `CC(C)N1CC(=O)N(Cc2ccc(F)c(Cl)c2)C2(CN(c3cccnn3)C2)C1=O` [Compound 9, 5-(3-chloro-4-fluorobenzyl)-8-isopropyl-2-(pyridazin-3-yl)-2,5,8-triazaspiro[3.5]nonane-6,9-dione], the “CDMF IC15” value in data set [1] came out at 1.6 µM. Further, the clearance (in general, the volume of plasma or blood freed of the substance per unit of time) came out at 1.64 L/h/kg in data set [4]; 0.834 L/h/kg in data set [5]; 0.912 L/h/kg in data set [6] (male, plasma). Besides, the half-life in data set [4] was 0.925 h; in data set [5] (read-out: t½ (converted)) it was 3.65 h. The Vd came out at 1.64 L/kg in data set [4] (read-out: Vss); 3.08 L/kg in data set [5] (read-out: Vss); 1.88 L/kg in data set [6] (male, plasma, read-out: Vss). Further, the “t l/2” value in data set [6] was found to be 1.59 h.
